Reference: US20070197452A1, “Treatment of amyloid-related diseases” (priority 2006, published 2007)
Entries after “also recorded” stand apart in the source; their conditions may differ.

Tests used:
β-secretase = molecular target: T1, β-secretase (Homo sapiens, UniProt P56817); assay: In vitro β-secretase activity assay; assay type: cell-based
T1 construct: endogenous in cells

[1] = test system: transgenic TauP301L mouse model of frontotemporal dementia; assay: Astrogliosis in transgenic TauP301L mice; assay type: in vivo; settings: transgenic Tau (P301L) mice
Method: Gliosis Quantitation. Five randomly selected, evenly spaced, sagittal sections were collected from paraformaldehyde-fixed and frozen hemispheres of treated and control mice. Sections were immunolabelled for astrocytes with anti-rat GFAβ IgG2a (Dako; diluted 1:50) and for microglia with anti-rat CD68 IgG2b (Dako; 1:50). Digital images were captured using a Coolsnap digital camera (Photometrics, Tuscon, Ariz.) mounted to a Zeiss, Axioscope 2 Plus microscope. Images were analysed using Openlab 3.08 imaging software (Improvision, Lexington Mass.). Quantification of gliosis. Five randomly selected, evenly spaced sagittal sections from paraformaldehyde-fixed and frozen hemispheres of treated and control mice were collected. Sections were immunolabeled for astrocytes with an antibody against rat GFAβ IgG2a (Dako; diluted 1:50) and for microglia with an antibody to rat CD68 IgG2b (Dako; 1:50). Digital images were captured using a Coolsnap digital camera (Photometrics) mounted to a Zeiss, Axioscope 2 Plus microscope. Images were analyzed using Openlab 3.08 imaging software (Improvision).

[2] = test system: transgenic TauP301L mouse model; assay: Synaptophysin quantification in TgTauP301L mice; assay type: in vivo; settings: TgTauP301L mice after treatment
Method: Synaptophysin immunohistochemical staining was performed on 3 evenly spaced saggital sections of paraformaldehyde-fixed treated and control mice. Sections were immunolabelled for synaptophysin with anti-synaptophysin IgG (1:40; Roche, Laval, PQ). Digital images were captured and analyzed as described above. Within each section, three randomly chosen 100 μm2 areas of the CA1 region of the hippocampus were counted for synaptophysin reactive cell bodies and boutons. The results are expressed as the mean of the number of reactive bodies and boutons per 100 μm2 [33, 34].
Synaptophysin quantification. Immunohistochemical staining was carried out for synaptophysin on three evenly spaced sagittal sections of paraformaldehyde-fixed treated and control mice. Sections were immunolabeled for synaptophysin with synaptophysin-specific IgG (1:40; Roche). Digital images were captured and analyzed as described above. Within each section, three randomly chosen 100 μm2 areas of the CA1 region of the hippocampus were counted for synaptophysin-reactive cell bodies and boutons. The results are expressed as the mean of the number of reactive bodies and boutons per 100 μm2 [33, 34].

γ-secretase = assay: In vitro γ-secretase assay in HEK293 cells transfected with human APPswe; assay type: cell-based
Method: FIG. 9. In vitro γ-secretase assays in HEK293 cells transfected with human APPswe. After swAPP stable HEK293 cells were untreated or treated with AZD-103 or 10 nM compound E, cell membranes were used for APP-FL and —CTF detection and for e-stubs generation in vitro assays at 37° C. for 1 hr. Lanes 1&[…] AZD-103 treatment; lanes 3&4 […] AZD-103 treatment; lanes 5&6 compound E treated and lanes 7&8 untreated HEK293 APPswe cells.
Analysis of APP processing. Mouse hemi-brain samples were homogenized and spun at 109,000 g, in 20 mM Tris pH 7.4, 0.25 M sucrose, 1 mM EDTA and 1 mM EGTA, and a protease inhibitor cocktail, mixed with a mixture of 0.4% DEA (diethylamine) and 100 mMNaCl. The supernatants were analyzed for APP levels by western blotting using the monoclonal antibody 22C11, and the pellets were analyzed for APP holoprotein with the monoclonal antibody C1/6.1 as previously described. […] The target protein was probed with polyclonal APP C-terminal fragment-specific antibody (Sigma) by western blotting.

TgCRND8 mice = assay: Open field test for motor activity; assay type: in vivo, mouse; settings: treated TgCRND8 mice vs untreated TgCRND8 and non-Tg littermates
Method: Behavioural tests: Morris Water Maze testing was performed as previously described. After non-spatial pre-training, mice underwent place discrimination training for 5 days with 4-trials per day, followed by a cued visible platform to rule out general motivational, learning deficits and motor problems, and a probe trial to evaluate memory. […] Open field test for motor activity was preformed as described previously. Duration of walking, pausing and grooming were analyzed as indices of spontaneous locomotor activity. Sensorimotor function was examined with an Economex™ accelerating rotarod (Columbus Instruments, Columbus, Ohio), as described elsewhere. The rod was set to accelerate at a rate of 0.2 r.p.m./s, from an initial, constant speed of 5 r.p.m. Latency to fall was recorded in four daily trials, conducted at 30 min intervals. All mice were trained for seven days before testing. The test day performance score for each animal was obtained by summing its latency to fall over the four trials
Behavioral tests. Morris water maze testing was carried out as previously described. After nonspatial pretraining, mice underwent place discrimination training for 5 d with four trials per day, followed by a cued visible platform trial and a probe trial. An open-field test for motor activity was carried out as described previously. Sensorimotor function was assessed with an Economex accelerating rotarod (Columbus Instruments) as previously described.
Behavioural tests. Morris Water Maze testing was performed as previously described. After non-spatial pre-training, mice underwent place discrimination training for 5 days with 4-trials per day, followed by a cued visible platform to rule out general motivational, learning deficits and motor problems, and a probe trial to evaluate memory. The probe trial was conducted at 72 h after the last testing, and used an annulus-crossing index to assess spatial recall. […]
Duration of walking, pausing and grooming were analyzed as indices of spontaneous locomotor activity. […] Latency to fall was recorded in four daily trials, conducted at 30 min intervals. […]

[3] = listed as Scyllo-cyclohexanehexol

T1 sequence (P56817 46-501): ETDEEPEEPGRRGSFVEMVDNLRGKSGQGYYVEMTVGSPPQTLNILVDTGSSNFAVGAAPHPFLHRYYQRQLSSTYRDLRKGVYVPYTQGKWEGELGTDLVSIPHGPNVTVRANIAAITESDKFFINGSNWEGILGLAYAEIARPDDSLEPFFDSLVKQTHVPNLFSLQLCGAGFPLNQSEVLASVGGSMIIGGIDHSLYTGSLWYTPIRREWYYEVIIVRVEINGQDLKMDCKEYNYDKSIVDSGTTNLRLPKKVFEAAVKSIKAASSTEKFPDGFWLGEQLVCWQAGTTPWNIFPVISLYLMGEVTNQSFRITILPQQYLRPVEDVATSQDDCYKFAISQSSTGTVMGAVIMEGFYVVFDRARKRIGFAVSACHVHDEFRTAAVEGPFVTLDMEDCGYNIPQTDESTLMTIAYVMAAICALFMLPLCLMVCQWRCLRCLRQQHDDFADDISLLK

OC1C(O)C(O)C(O)C(O)C1O (stereo not shown) [scyllo-cyclohexanehexol, 1,3,5/2,4,6-(scyllo-) cyclohexanehexol]
β-secretase enzyme activity (β-secretase): no effect | astrogliosis [1]: did not prevent the astrogliosis | astrogliosis [1, 3]: no effect | synaptophysin reactivity / synaptic loss [2]: unchanged | synaptophysin reactivity / synaptic loss ([2]; listed as AZD-103): unchanged | synaptophysin reactivity / synaptic loss ([2]; listed as scyllocyclohexanehexol): no effect on synaptic loss | γ-secretase enzyme activity (γ-secretase): no effect | open field: grooming, pausing, walking / activity levels (TgCRND8 mice): indistinguishable; also recorded: does not affect activity levels | open field: grooming, pausing, walking / activity levels (TgCRND8 mice; listed as AZD-103): does not affect activity levels | open field: grooming, pausing, walking / activity levels (TgCRND8 mice; [3]): no effect on grooming or activity
